{"source": "paper PMC3137686", "about": "(Synapse (New York, N.Y.), 2011)", "key": {"[1]": {"system": "brain 5-HT axonal markers", "settings": "intrastriatal administration; ref Jones et al. 2005; cited from earlier work"}, "[2]": {"system": "cytochrome P450 (CYP450)", "settings": "ref Broly et al. 1990; Ramamoorthy et al. 2002; Heydari et al. 2004; cited from earlier work"}, "[3]": {"assay": "Rectal", "type": "in vivo, rat"}, "[4]": {"system": "brain serotonin (5-HT) neurons", "assay": "Regional brain 5-HT and 5-HIAA concentrations one week after drug treatment", "type": "in vivo, rat", "settings": "one week after single oral dose of 20 mg/kg MDMA"}, "[5]": {"system": "brain serotonin (5-HT) neurons", "settings": "ref Paris and Cunningham 1992, Esteban et al. 2001, Escobedo et al. 2005; cited from earlier work"}}, "note": "Entries after “also recorded” stand apart in the source; their conditions may differ."}
{"compound": "CNC(C)Cc1cc(O)c(O)c(SC[C@H](NC(C)=O)C(=O)O)c1", "note": "(stereo partly shown) [5-NAC-HHMA, 5-N-acetylcystein-S-yl-HHMA]", "values": [{"measurement": "lasting depletions of indoles in the rat brain", "setting": "[1]", "value": "produces lasting depletions of indoles"}]}
{"compound": "COc1ccc2c(c1)[C@]13CCCC[C@@H]1[C@H](C2)N(C)CC3", "note": "[DXM, dextromethorphan]", "values": [{"measurement": "inhibition of CYP450-mediated metabolism of MDMA to HHMA", "setting": "[2]", "value": "potent competitive inhibitor"}, {"measurement": "effect of DXM on body (core) temperature", "setting": "[3]; DXM 30 mg/kg i.p. x3, alone or in combination with MDMA 20 mg/kg p.o.", "value": "did not significantly alter; also recorded: no significant effect"}, {"measurement": "body temperature after combination of MDMA and DXM", "setting": "[3]; MDMA 20 mg/kg p.o. + DXM 30 mg/kg i.p. x3", "value": "longer lasting decrease in temperature, which was followed by an increase in core temperature"}, {"measurement": "peak temperatures, MDMA/DXM group vs MDMA/Saline group", "setting": "[3]; MDMA 20 mg/kg p.o. + DXM 30 mg/kg i.p. x3, difference did not achieve statistical significance", "value": "lower"}]}
{"compound": "CNC(C)Cc1ccc2c(c1)OCO2", "note": "(stereo not shown) [MDMA, 3,4-Methylenedioxymethamphetamine]", "values": [{"measurement": "5-HT and 5-HIAA concentrations across brain regions after MDMA", "setting": "[4]", "value": "lasting effects"}, {"measurement": "toxic effects after central administration", "setting": "[5]", "value": "does not produce toxic effects"}]}
